Experimental data reported in ChEMBL document CHEMBL1201862, “PubChem BioAssay data set” (2004).
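Five compound concentrations were applied to cells in 96-well plates for 48 hours; endpoints were derived by simple linear interpolation of the resulting dose-response curve. GI50 = concentration required for 50% inhibition of growth.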 Activity calls are given as the source filed them. No stated cut-off is given here; in the data, active = GI50 up to about 1.1 µM and inactive = higher.

What was measured:
Test in all cases: NCI anticancer screen, dose series, 48 h
SNB-75 = test system: SNB-75
CCRF-CEM = test system: CCRF-CEM
MOLT-4 = test system: MOLT-4
A549 = test system: A549
OVCAR-8 = test system: OVCAR-8
SF-268 = test system: SF-268
SW-620 = test system: SW-620
K562 = test system: K562
HT-29 = test system: HT-29
NCI-H23 = test system: NCI-H23
NCI-H460 = test system: NCI-H460
SK-MEL-28 = test system: SK-MEL-28
SN12C = test system: SN12C
HL-60 = test system: HL-60
OVCAR-3 = test system: OVCAR-3
U-251 = test system: U-251
SNB-19 = test system: SNB-19
SK-MEL-5 = test system: SK-MEL-5
KM12 = test system: KM12
SF-295 = test system: SF-295

Measured: GI50

O=C1OCC=C1COC1OC(CO)C(O)C(O)C1O (stereo not given)
inactive: SNB-75 > 100 µM | CCRF-CEM 30.5 µM | MOLT-4 > 100 µM | A549 > 100 µM | OVCAR-8 > 100 µM | SF-268 > 100 µM | SW-620 > 100 µM | K562 > 100 µM | HT-29 > 100 µM | NCI-H23 > 100 µM | NCI-H460 > 100 µM | SK-MEL-28 > 100 µM | SN12C > 100 µM | HL-60 73.6 µM | OVCAR-3 > 100 µM | U-251 > 100 µM | SNB-19 > 100 µM | SK-MEL-5 > 100 µM | KM12 > 100 µM | SF-295 > 100 µM

Cn1c(=O)n2n(c1=O)C(C)(C13CC4CC(CC(C4)C1)C3)C13CC4CC(CC1C4)CC23 (stereo not given)
inactive: SNB-75 > 100 µM | CCRF-CEM > 100 µM | MOLT-4 89.9 µM | A549 > 100 µM | OVCAR-8 > 100 µM | SF-268 > 100 µM | SW-620 > 100 µM | K562 87.1 µM | HT-29 > 100 µM | NCI-H23 > 100 µM | NCI-H460 > 100 µM | SK-MEL-28 > 100 µM | SN12C > 100 µM | HL-60 6.76 µM | OVCAR-3 > 100 µM | U-251 > 100 µM | SNB-19 > 100 µM | SK-MEL-5 > 100 µM | KM12 > 100 µM | SF-295 > 100 µM

COCCN(C(=O)c1ccccc1)C1CCC(=O)c2[nH]c3ccccc3c21 (stereo not given)
inactive: SNB-75 5.62 µM | CCRF-CEM 3.64 µM | MOLT-4 6.64 µM | A549 15.6 µM | OVCAR-8 6.85 µM | SF-268 9.12 µM | SW-620 8.28 µM | K562 3.85 µM | HT-29 9.98 µM | NCI-H23 17.7 µM | NCI-H460 12.8 µM | SK-MEL-28 6.07 µM | SN12C 7.85 µM | HL-60 8.87 µM | OVCAR-3 12.5 µM | U-251 2.08 µM | SNB-19 11.2 µM | SK-MEL-5 7.14 µM | KM12 8.41 µM | SF-295 > 41 µM

Cc1ccc(S(=O)(=O)NCCCSCCN)cc1
inactive: SNB-75 > 100 µM | CCRF-CEM > 100 µM | MOLT-4 > 100 µM | A549 > 100 µM | OVCAR-8 > 100 µM | SF-268 > 100 µM | SW-620 > 100 µM | K562 > 100 µM | HT-29 > 100 µM | NCI-H23 > 100 µM | NCI-H460 > 100 µM | SK-MEL-28 > 100 µM | SN12C > 100 µM | HL-60 > 100 µM | OVCAR-3 > 100 µM | U-251 > 100 µM | SNB-19 > 100 µM | SK-MEL-5 22 µM | KM12 > 100 µM | SF-295 > 100 µM

Cc1nc2ccccc2c(=O)n1CC(=O)O
inactive: SNB-75 > 100 µM | CCRF-CEM > 100 µM | MOLT-4 > 100 µM | A549 > 100 µM | OVCAR-8 > 100 µM | SF-268 > 100 µM | SW-620 > 100 µM | K562 > 100 µM | HT-29 > 100 µM | NCI-H23 > 100 µM | NCI-H460 > 100 µM | SK-MEL-28 > 100 µM | SN12C > 100 µM | HL-60 > 100 µM | OVCAR-3 > 100 µM | U-251 > 100 µM | SNB-19 > 100 µM | SK-MEL-5 > 100 µM | KM12 > 100 µM | SF-295 > 100 µM

COc1ccc(NC(=S)c2ccc([N+](=O)[O-])o2)cc1
inactive: SNB-75 3.19 µM | CCRF-CEM 2.14 µM | MOLT-4 3.22 µM | A549 3.18 µM | OVCAR-8 1.28 µM | SF-268 2.04 µM | K562 2.07 µM | HT-29 1.26 µM | NCI-H23 1.6 µM | NCI-H460 2.18 µM | SK-MEL-28 3.22 µM | SN12C 2.13 µM | HL-60 1.99 µM | OVCAR-3 1.19 µM | SNB-19 2.72 µM | KM12 1.6 µM | SF-295 3.6 µM
active: SW-620 0.918 µM | U-251 0.885 µM | SK-MEL-5 0.65 µM

CC12CCC3C(CCC4CC(OC(=O)Cc5ccc(N(CCCl)CCCl)cc5)CCC43C)C1CCC(=O)N2 (stereo not given)
inactive: SNB-75 15 µM | CCRF-CEM 6.25 µM | MOLT-4 7.41 µM | A549 15.5 µM | OVCAR-8 15.8 µM | SF-268 17.1 µM | SW-620 14 µM | K562 16.9 µM | HT-29 16.4 µM | NCI-H23 13 µM | NCI-H460 7.26 µM | SK-MEL-28 17.1 µM | SN12C 15.6 µM | HL-60 4.84 µM | OVCAR-3 18.2 µM | U-251 15.1 µM | SNB-19 18.3 µM | SK-MEL-5 18.2 µM | KM12 18.2 µM | SF-295 16.3 µM

O=C1C2c3[nH]c4ccccc4c3C3CCSCC3C2C(=O)N1c1ccccc1 (stereo not given)
inactive: SNB-75 15.9 µM | CCRF-CEM > 100 µM | MOLT-4 87.3 µM | A549 > 100 µM | OVCAR-8 > 100 µM | SF-268 > 100 µM | SW-620 > 100 µM | K562 72.9 µM | HT-29 > 100 µM | NCI-H23 > 100 µM | NCI-H460 > 100 µM | SK-MEL-28 > 100 µM | SN12C > 100 µM | HL-60 > 100 µM | OVCAR-3 > 100 µM | U-251 > 100 µM | SNB-19 > 100 µM | SK-MEL-5 > 100 µM | KM12 > 100 µM | SF-295 > 100 µM

COC1CC(C)(NC(=O)C(F)(F)F)C2OC(c3ccccc3)OCC2O1 (stereo not given)
inactive: SNB-75 > 100 µM | CCRF-CEM > 100 µM | MOLT-4 47.3 µM | A549 > 100 µM | OVCAR-8 > 100 µM | SF-268 > 100 µM | SW-620 > 100 µM | K562 > 100 µM | HT-29 47 µM | NCI-H23 > 100 µM | NCI-H460 > 100 µM | SK-MEL-28 > 100 µM | SN12C > 100 µM | HL-60 > 100 µM | OVCAR-3 > 100 µM | U-251 > 100 µM | SNB-19 > 100 µM | SK-MEL-5 > 100 µM | KM12 > 100 µM | SF-295 > 100 µM

CC(C)N(C)C(=O)C12C3C4C1C1C2C3C41C#N (stereo not given)
inactive: SNB-75 7.64 µM | CCRF-CEM > 100 µM | MOLT-4 > 100 µM | A549 > 100 µM | OVCAR-8 > 100 µM | SF-268 > 100 µM | SW-620 > 100 µM | K562 > 100 µM | HT-29 > 100 µM | NCI-H23 > 100 µM | NCI-H460 > 100 µM | SK-MEL-28 > 100 µM | SN12C > 100 µM | HL-60 > 100 µM | OVCAR-3 > 100 µM | U-251 > 100 µM | SNB-19 > 100 µM | SK-MEL-5 > 100 µM | KM12 > 100 µM | SF-295 > 100 µM

CC(NNC(=O)c1cc[n+]([BH2-]C#N)cc1)c1ccc(Cl)c(Cl)c1 (stereo not given)
inactive: SNB-75 34.8 µM | CCRF-CEM 37.1 µM | MOLT-4 25.9 µM | A549 32.5 µM | OVCAR-8 42.8 µM | SF-268 39.6 µM | SW-620 45.1 µM | K562 34.9 µM | HT-29 17.5 µM | NCI-H23 20.7 µM | NCI-H460 27.2 µM | SK-MEL-28 40.8 µM | SN12C 34.5 µM | HL-60 25.8 µM | OVCAR-3 26.9 µM | U-251 40.2 µM | SNB-19 38.3 µM | SK-MEL-5 19.7 µM | KM12 40.5 µM | SF-295 29.6 µM

CC(=O)NC1=C(C)C(=O)c2c(nc3n2CCC3OC(=O)c2ccccc2)C1=O (stereo not given)
inactive: SNB-75 3.58 µM | CCRF-CEM 1.19 µM | MOLT-4 1.99 µM | A549 1.7 µM | OVCAR-8 1.3 µM | SF-268 2.21 µM | SW-620 1.79 µM | K562 2.32 µM | NCI-H23 1.67 µM | NCI-H460 2.37 µM | SK-MEL-28 1.86 µM | SN12C 1.79 µM | HL-60 1.92 µM | U-251 1.89 µM | SNB-19 2.69 µM | SK-MEL-5 1.75 µM | KM12 2.61 µM | SF-295 1.51 µM
active: HT-29 0.514 µM | OVCAR-3 0.223 µM

CC(=O)O[C@H]1CC[C@@]2(C)[C@H](CC[C@@H]3[C@@H]2CC[C@]2(C)[C@@H](c4ccc(=O)oc4)C[C@H]4O[C@]342)C1
inactive: HT-29 1.77 µM | SK-MEL-28 2.2 µM | SNB-19 1.82 µM | KM12 2.36 µM
active: SNB-75 0.708 µM | CCRF-CEM 0.392 µM | MOLT-4 0.237 µM | A549 0.213 µM | OVCAR-8 0.509 µM | SF-268 0.348 µM | SW-620 0.665 µM | K562 0.646 µM | NCI-H23 0.327 µM | NCI-H460 0.212 µM | SN12C 0.327 µM | HL-60 0.307 µM | OVCAR-3 0.338 µM | U-251 1.02 µM | SK-MEL-5 0.34 µM | SF-295 0.515 µM

CC(C)=CCC/C(C)=C/CC/C(C)=C/CSc1ccc(Cl)cc1C(=O)O
inactive: SNB-75 18.7 µM | CCRF-CEM 21.2 µM | MOLT-4 23.1 µM | A549 16.5 µM | OVCAR-8 20 µM | SF-268 17.9 µM | SW-620 22 µM | K562 25.5 µM | HT-29 21.1 µM | NCI-H23 17.7 µM | NCI-H460 18.7 µM | SK-MEL-28 17.3 µM | SN12C 26.3 µM | HL-60 22.2 µM | OVCAR-3 17 µM | U-251 17.5 µM | SNB-19 18.4 µM | SK-MEL-5 23.4 µM | KM12 17 µM | SF-295 17.4 µM
